Patent US9902938B2, “Method for inducing exocrine pancreatic cells” (Kyoto University, priority 2012, dated 2018)

Tests used:
[1] = test system: PDX1-positive pancreatic precursor cells; experiment: Induction of exocrine pancreatic cells from human ES cell-derived pancreatic precursor cells (Example 1, anti-amylase immunostaining); format: cell-based; details: human ES cells (KhES3)
Method: Human ES cells (KhES3) received from Kyoto University (Kyoto, Japan) were cultured by a conventional method (Mori H, et al., Biochem Biophys Res Commun. 2006, 345, 926-932). ES cells were cultured on 6-cm dishes to 80%-90% confluency, and then 1 mL of Accutase™ was added to disperse ES cells into single cells.
ES cells dispersed into single cells were induced to differentiate into exocrine pancreatic cells according to protocols shown in FIG. 1. Specifically, the following 5 steps were carried out.
(§1) (Stage 1) ES cells were suspended in a RPMI1640 medium containing 2% B27 and Penicillin/Streptomycin, and then seeded in a matrigel-coated 24-well plate at 250,000/well. 100 ng/ml, Activin A and 1 μM CHIR99021 were added to adjust the amount of the medium to be 0.5 mL/well, and then cells were cultured for 6 days.
(Stage 2-1) The medium was substituted with DMEM containing 50 ng/ml FGF10, 0.25 μM KAAD (3-Keto-N-(aminoethyl-aminocaproyl-dihydro-cinnamoyl))-cyclopamine, 1% L-Glutamin, 2% B27, 50 mU/L Penicillin and 50 μg/L Streptomycin, and then cells were cultured for 1 day.
(Stage 2-2) The medium was substituted with DMEM containing 2 μM retinoic acid, 50 ng/ml FGF10, 0.25 μM KAAD-cyclopamine, 1% L-Glutamin, 2% B27, 50 mU/L Penicillin and 50 μg/L Streptomycin, and then cells were cultured for 2 days.
(Stage 2-3) The medium was substituted with DMEM containing 50 ng/ml FGF10, 300 nM (−)-indolactam V (ILV), 1% L-Glutamin, 2% B27, 50 mU/L Penicillin and 50 μg/L Streptomycin, and then cells were cultured for 4 days.
(Stage 3) The medium was substituted with DMEM containing 1 μM CHAP108 (formula 10), 300 nM ILV, 1% L-Glutamin, 2% B27, 50 mU/L Penicillin and 50 μg/L. Streptomycin, and then cells were cultured for 4 days or 8 days.
The result obtained by culturing cells for 12 days in Stage 3 with the use of the ligand protein for a Notch signal, 0.5 mg/ml hDLL4 or 0.5 mg/ml hJAG1, instead of CHAP108 was compared with the result obtained by culturing cells for 4 days in Stage 3 with the use of CHAP108. […]

[2] = test system: PDX1-positive pancreatic precursor cells; experiment: Induction of exocrine pancreatic cells by modified protocol (Example 2, immunostaining with anti-Amylase); format: cell-based; details: Stage 3 culture 2 days, 1 μM CHAP108 with 300 nM ILV; human ES cells (KhES3); DMSO negative control 2.8%
Method: ES cells (KhES3) dispersed into single cells were induced to differentiate into exocrine pancreatic cells according to modified protocols shown in FIG. 1. Specifically, the following 5 steps were carried out.
as §1, with “100 ng/mL” for “100 ng/ml,”, “for 4” for “for 6”
(Stage 2-1) The medium was substituted with DMEM containing 50 ng/ml […], 0.25 μM KAAD (3-Keto-N-(aminoethyl-aminocaproyl-dihydro-cinnamoyl))-cyclopamine, 1% L-Glutamin, 2% B27, 50 mU/L Penicillin and 50 μg/L Streptomycin, and then cells were cultured for 1 day.
(Stage 2-2) The medium was substituted with DMEM containing 2 μM retinoic acid, 50 ng/ml FGF10, 0.25 μM KAAD-cyclopamine, 1% L-Glutamin, 2% B27, 50 mU/L Penicillin and […] Streptomycin, and then cells were cultured for 2 days.
(Stage 2-3) The medium was substituted with DMEM containing 50 ng/ml FGF10, 300 nM (−)-indolactam V (ILV), 1% L-Glutamin, 2% B27, 50 mU/L Penicillin and 50 μg/L Streptomycin, and then cells were cultured for 2 days. […]

[3] = Stage 3 culture 12 days, 0.5 mg/ml ligand protein instead of CHAP108

Compound | efficiency for inducing exocrine pancreatic cells [1, 3] [%] | Amylase positive rate [2] [%] | efficiency for inducing exocrine pancreatic cells ([1]; Stage 3 culture 4 days, 1 μM CHAP108 with 300 nM ILV) [%]
hDLL4: ligand protein for a Notch signal receptor, member of the Delta-like family | 28.8 |  | 
hJAG1: ligand protein for a Notch signal receptor, member of the Jagged family | 27.0 |  | 
CCC(C)C1NC(=O)C(Cc2ccc(OC)cc2)NC(=O)C(CCCCCN(O)C=O)NC(=O)C2CCCCN2C1=O (stereo not shown) [CHAP108] |  | 56.3 | 21.4
